ChEMBL document CHEMBL5705903, “A DNA Hypomethylation Signature Predicts Antitumor Activity of LSD1 Inhibitors in SCLC” (Cancer Cell, 2015)
Activity calls are given as the source filed them. The rule behind the calls is not given here.

Tests used:
[1] = system: NCI-H1417; test: Effect on caspase-3 level in human NCI-H1417 cells upto 1000 nM measured after 10 days by Western blot analysis; assay type: functional, cell-based; conditions: time 10.0 day
[2] = system: NCI-H526; test: In vivo inhibition of LSD1 in human NCI-H526 cells xenografted in nude mouse assessed as change in KIAA1644 gene expression measured after 24 hrs post single administration by qRT-PCR analysis; assay type: functional, organism-based; conditions: dose 0.06-135 mg/kg
[3] = Effect on cleaved PARP level in human NCI-H146 cells assessed as fold change at 1000 nM measured after 14 days by Western blot analysis (reference value: 1.00); assay type: functional; conditions: time 14 day
[4] = system: NCI-H446; test: Effect on NSE gene expression in human NCI-H446 cells at 1 uM measured after 4 to 7 days by qRT-PCR analysis; assay type: functional, cell-based; conditions: time 4-7 day
[5] = system: NCI-H446; test: Effect on SYP gene expression in human NCI-H446 cells at 1 uM measured after 4 days by qRT-PCR analysis; assay type: functional, cell-based; conditions: time 4.0 day
[6] = Effect on cleaved PARP level in human NCI-H524 cells assessed as relative expression at 10 nM measured after 10 days by Western blot analysis (reference value: 0.95); assay type: functional; conditions: time 10 day
[7] = Effect on cleaved PARP level in human NCI-H526 cells assessed as fold change at 1000 nM measured after 14 days by Western blot analysis (reference value: 1.00); assay type: functional; conditions: time 14 day
[8] = Effect on cleaved PARP level in human NCI-H1417 cells assessed as relative expression at 1000 nM measured after 10 days by Western blot analysis (reference value: 0.19); assay type: functional; conditions: time 10 day
[9] = Effect on cleaved PARP level in human COLO-668 cells assessed as relative expression at 1000 nM measured after 10 days by Western blot analysis (reference value: 1.07); assay type: functional; conditions: time 10 day
[10] = system: NCI-H1417; test: Antitumor activity against human NCI-H1417 cells xenografted in nude mouse assessed as decrease in GRP expression at 1.5 mg/kg administrated daily by qRT-PCR analysis; assay type: functional, organism-based; conditions: time 1-14 day, TDE = time-dependent effect
[11] = Effect on cleaved PARP level in human NCI-H146 cells assessed as relative expression at 1000 nM measured after 7 days by Western blot analysis (reference value: […]); assay type: functional; conditions: time 7 day
[12] = Effect on cleaved PARP level in human NCI-H69 cells assessed as fold change at 1000 nM measured after 10 days by Western blot analysis (reference value: 1.00); assay type: functional; conditions: time 10 day
[13] = Toxicity in dog assessed as neutrophenia measured for 28 days; set-up: species or system Canis lupus familiaris; conditions: in vivo, 672 h, time 28 day
[14] = Effect on cleaved PARP level in human NCI-H69 cells assessed as fold change at 1000 nM measured after 14 days by Western blot analysis (reference value: 1.00); assay type: functional; conditions: time 14 day
[15] = Effect on cleaved PARP level in human NCI-H526 cells assessed as fold change at 100 nM measured after 7 days by Western blot analysis (reference value: 1.00); assay type: functional; conditions: time 7 day
[16] = Effect on cleaved PARP level in human NCI-H1694 cells assessed as fold change at 1000 nM measured after 14 days by Western blot analysis (reference value: 1.00); assay type: functional; conditions: time 14 day
[17] = Effect on cleaved PARP level in human NCI-H526 cells assessed as relative expression at 100 nM measured after 14 days by Western blot analysis (reference value: 0.66); assay type: functional; conditions: time 14 day
[18] = system: NCI-H526; test: Antitumor activity against human NCI-H526 cells xenografted in nude mouse assessed as tumor growth inhibition at 0.5 mg/kg, po administered daily measured twice weekly relative to control; assay type: functional; conditions: read-out: TGI
[19] = Effect on cleaved PARP level in human COLO-668 cells assessed as fold change at 1000 nM measured after 7 days by Western blot analysis (reference value: 1.00); assay type: functional; conditions: time 7 day
[20] = Oral bioavailability in mouse at 5 mg/kg by HPLC/MS/MS analysis; assay type: ADME, organism-based; conditions: in vivo
[21] = Effect on cleaved PARP level in human NCI-H1694 cells assessed as fold change at 100 nM measured after 14 days by Western blot analysis (reference value: 1.00); assay type: functional; conditions: time 14 day
[22] = system: NCI-H526; test: Effect on cell cycle in human NCI-H526 cells assessed as cell accumulation at […] phase upto 1000 nM measured for 7 to 14 days by flow cytometry; assay type: functional, cell-based; conditions: time 7-14 day
[23] = Effect on cleaved PARP level in human NCI-H510 cells assessed as relative expression at 100 nM measured after 7 days by Western blot analysis (reference value: 0.24); assay type: functional, NCI-H510A; conditions: time 7 day
[24] = system: NCI-H526; test: Antitumor activity against human NCI-H526 cells xenografted in nude mouse assessed as mean tumor volume at 1.5 mg/kg, po administered daily measured twice weekly (reference value: 2359 +/- 247 mm3); assay type: functional
[25] = Effect on cleaved PARP level in human COLO-668 cells assessed as relative expression at 10 nM measured after 10 days by Western blot analysis (reference value: 1.07); assay type: functional; conditions: time 10 day
[26] = Toxicity in rat assessed as suppression of platelet in bone marrow measured for 28 days; assay type: cell-based; conditions: 672 h, time 28 day
[27] = Effect on cleaved PARP level in human NCI-H1417 cells assessed as relative expression at 100 nM measured after 10 days by Western blot analysis (reference value: 0.19); assay type: functional; conditions: time 10 day
[28] = Effect on cleaved PARP level in human NCI-H510 cells assessed as relative expression at 1000 nM measured after 14 days by Western blot analysis (reference value: 0.01); assay type: functional, NCI-H510A; conditions: time 14 day
[29] = system: NCI-H526; test: In vivo inhibition of LSD1 in human NCI-H526 cells xenografted in nude mouse assessed as change in UMODL1 gene expression administrated daily for 5 days by qRT-PCR analysis; assay type: functional, organism-based; conditions: dose 0.02-135 mg/kg, time 5.0 day
[30] = Effect on cleaved PARP level in human COLO-668 cells assessed as relative expression at 1000 nM measured after 14 days by Western blot analysis (reference value: 3.50); assay type: functional; conditions: time 14 day
[31] = Effect on cleaved PARP level in human NCI-H1694 cells assessed as fold change at 1000 nM measured after 7 days by Western blot analysis (reference value: 1.00); assay type: functional; conditions: time 7 day
[32] = system: NCI-H526; test: In vivo inhibition of LSD1 in human NCI-H526 cells xenografted in nude mouse assessed as change in IGFBP2 gene expression measured after 24 hrs post single administration by qRT-PCR analysis; assay type: functional, organism-based; conditions: dose 0.06-135 mg/kg
[33] = Effect on cleaved PARP level in human NCI-H146 cells assessed as relative expression at 10 nM measured after 10 days by Western blot analysis (reference value: 0.27); assay type: functional; conditions: time 10 day
[34] = system: NCI-H526; test: In vivo inhibition of LSD1 in human NCI-H526 cells xenografted in nude mouse assessed as change in TSPAN8 gene expression measured after 24 hrs post single administration by qRT-PCR analysis; assay type: functional, organism-based; conditions: dose 0.06-135 mg/kg
[35] = Effect on cleaved PARP level in human NCI-H1417 cells assessed as fold change at 10 nM measured after 10 days by Western blot analysis (reference value: 1.00); assay type: functional; conditions: time 10 day
[36] = Toxicity in dog assessed as morbidity measured for 28 days; set-up: species or system Canis lupus familiaris; conditions: in vivo, 672 h, time 28 day
[37] = Toxicity in rat assessed as thrombocytopenia measured for 28 days; conditions: in vivo, 672 h, time 28 day

Q: Which Activity [1] does the source give for `O=C(O)c1ccc(CN2CCC(CN[C@@H]3C[C@H]3c3ccccc3)CC2)cc1` [GSK2879552] here?
A: inactive

Q: And the inhibition [2]?
A: Dose-Dependent Effect

Q: And the “fold change (FC)” value [3]?
A: 0.6

Q: And the Activity [4]?
A: inactive

Q: What about the Activity [5] of the same molecule?
A: inactive

Q: And the Activity [6]?
A: 0.77

Q: And the “fold change (FC)” value [7]?
A: 1.37

Q: And the Activity [8]?
A: 0.4

Q: And the Activity [9]?
A: 0.63

Q: And the Activity [10]?
A: Tde

Q: And the Activity [11]?
A: 2.43

Q: And the “fold change (FC)” value [12]?
A: 2.5

Q: And the Activity [13]?
A: Toxic

Q: And the “fold change (FC)” value [14]?
A: 5.16

Q: And the “fold change (FC)” value [15]?
A: 1.2

Q: What about the “fold change (FC)” value [16] of the same molecule?
A: 0.84

Q: And the Activity [17]?
A: 0.93

Q: And the inhibition in vivo at 0.5 mg/kg [18]?
A: 48%

Q: And the “fold change (FC)” value [19]?
A: 0.95

Q: And the bioavailability [20]?
A: 59.2%

Q: And the “fold change (FC)” value [21]?
A: 0.89

Q: And the Activity [22]?
A: inactive

Q: What about the Activity [23] of the same molecule?
A: 0.43

Q: What about the Activity [24] of the same molecule?
A: 1113 mm3

Q: And the Activity [25]?
A: 0.81

Q: What about the Activity [26] of the same molecule?
A: Toxic

Q: What about the Activity [27] of the same molecule?
A: 0.4

Q: What about the Activity [28] of the same molecule?
A: 0.47

Q: And the inhibition [29]?
A: Dose-Dependent Effect

Q: And the Activity [30]?
A: 1.02

Q: And the “fold change (FC)” value [31]?
A: 1.44

Q: And the inhibition [32]?
A: Dose-Dependent Effect

Q: And the Activity [33]?
A: 0.33

Q: What about the inhibition [34] of the same molecule?
A: Dose-Dependent Effect

Q: And the “fold change (FC)” value [35]?
A: 1.44

Q: What about the Activity [36] of the same molecule?
A: Toxic

Q: What about the Activity [37] of the same molecule?
A: Toxic
